# What was measured:
# [1] = Therapeutic index, ratio of EC50 for cytotoxicity against human BJ cells to EC50 for antimalarial activity against Plasmodium falciparum 3D7; type: toxicity, cell-based; conditions: read-out: Ratio EC50
# BJ = assay: Cytotoxicity against human BJ cells; type: cell-based
# Plasmodium falciparum [2] = assay: Antimalarial activity against chloroquine-sensitive Plasmodium falciparum 3D7 infected in o-positive erythrocyte assessed as reduction in parasite growth; type: functional, organism-based; conditions: 3D7, Erythrocyte
# HeLa = assay: Cytotoxicity against human HeLa cells assessed as reduction in cell viability incubated for 48 hrs by CCK8 assay; type: cell-based
# HepG2 = assay: Cytotoxicity against human HepG2 cells assessed as reduction in cell viability incubated for 48 hrs by CCK8 assay; type: cell-based; conditions: HepG2, 48 h
# Plasmodium falciparum [3] = assay: Antimalarial activity against Plasmodium falciparum 3D7 infected in erythrocytes assessed as reduction in parasite growth incubated for 72 hrs by SYBR green dye based fluorescence assay; type: functional, organism-based; conditions: 3D7, Erythrocyte
compound,measurement,setting,value
Clc1ccc2[nH]c3c(c2c1)CCNC3c1ccccc1Cl (stereo unspecified),selectivity ratio,[1],12
same,EC50,BJ,> 24 µM
same,EC50,Plasmodium falciparum [2],1.94 µM
CC1NCCc2c1n(C)c1ccc(Cl)cc21 (stereo unspecified),selectivity ratio,[1],1
same,EC50,BJ,> 24 µM
same,EC50,Plasmodium falciparum [2],> 18 µM
Oc1cccc(C2NCCc3c2[nH]c2ccc(Cl)cc32)c1 (stereo unspecified),selectivity ratio,[1],3
same,EC50,BJ,> 24 µM
same,EC50,Plasmodium falciparum [2],7.53 µM
Cc1ccc(C2NCCc3c2[nH]c2ccc(Cl)cc32)cc1 (stereo unspecified),selectivity ratio,[1],1
same,EC50,BJ,> 24 µM
same,EC50,Plasmodium falciparum [2],17.9 µM
Oc1ccccc1C1NCCc2c1[nH]c1ccc(Cl)cc21 (stereo unspecified),selectivity ratio,[1],4
same,EC50,BJ,15.7 µM
same,EC50,Plasmodium falciparum [2],4.35 µM
Clc1ccc2[nH]c3c(c2c1)CCNC3Cc1ccccc1 (stereo unspecified),selectivity ratio,[1],2
same,EC50,BJ,> 24 µM
same,EC50,Plasmodium falciparum [2],10.9 µM
Clc1ccc2[nH]c3c(c2c1)CCNC3c1ccc2ccccc2c1 (stereo unspecified),selectivity ratio,[1],1
same,EC50,BJ,17.2 µM
same,EC50,Plasmodium falciparum [2],16.6 µM
CC1NCCc2c1[nH]c1ccc(Cl)cc21 (stereo unspecified),EC50,HeLa,1100 µM
same,EC50,HepG2,160 µM
same,EC50,Plasmodium falciparum [3],12.2 µM
Clc1ccc2[nH]c3c(c2c1)CCNC3c1ccccc1 (stereo unspecified),selectivity ratio,[1],14
same,EC50,BJ,> 24 µM
same,EC50,Plasmodium falciparum [2],1.67 µM
Clc1ccc2[nH]c3c(c2c1)CCNC3C1CCCCC1 (stereo unspecified),selectivity ratio,[1],2
same,EC50,BJ,> 24 µM
same,EC50,Plasmodium falciparum [2],12.1 µM
Clc1cccc(C2NCCc3c2[nH]c2ccc(Cl)cc32)c1 (stereo unspecified),selectivity ratio,[1],9
same,EC50,BJ,23.6 µM
same,EC50,Plasmodium falciparum [2],2.53 µM
Clc1ccc(C2NCCc3c2[nH]c2ccc(Cl)cc32)cc1 (stereo unspecified),selectivity ratio,[1],2
same,EC50,BJ,23 µM
same,EC50,Plasmodium falciparum [2],13.3 µM
Cc1cccc(C2NCCc3c2[nH]c2ccc(Cl)cc32)c1 (stereo unspecified),selectivity ratio,[1],68
same,EC50,BJ,> 24 µM
same,EC50,Plasmodium falciparum [2],0.352 µM
Cc1ccccc1C1NCCc2c1[nH]c1ccc(Cl)cc21 (stereo unspecified),selectivity ratio,[1],12
same,EC50,BJ,> 24 µM
same,EC50,Plasmodium falciparum [2],2.08 µM
CCn1c2c(c3cc(Cl)ccc31)CCNC2C (stereo unspecified),selectivity ratio,[1],1
same,EC50,BJ,> 24 µM
same,EC50,Plasmodium falciparum [2],> 18 µM
Clc1ccc2[nH]c3c(c2c1)CCNC3c1cccc2ccccc12 (stereo unspecified),selectivity ratio,[1],3
same,EC50,BJ,> 24 µM
same,EC50,Plasmodium falciparum [2],7.06 µM
Oc1ccc(C2NCCc3c2[nH]c2ccc(Cl)cc32)cc1 (stereo unspecified),selectivity ratio,[1],5
same,EC50,BJ,> 24 µM
same,EC50,Plasmodium falciparum [2],4.45 µM

# Source: ChEMBL document CHEMBL4665765, “Antimalarial activity of tetrahydro-β-carbolines targeting the ATP binding pocket of the Plasmodium falciparum heat shock 90 protein” (Bioorg Med Chem Lett, 2020)
